# From patent EP2128622A1, “Means and methods for diagnosing metastasising potentials of tumor cells” (DKFZ Deutsches Krebsforschungszentrum, priority 2008, dated 2009)
# Numbered stars: 1 amine (or outer) side, 2 acyl side, 3 side chain; on linkers, the order of the positions; unused ones are H or OH. Bridge positions count the residues as written; N and C are the ends. Square brackets hold non-standard residues; d marks the D form. Peptide text beside a SMILES is read from it. I, II: the chains in the order shown. Actinocin(9to1) = Cc1c2oc3c(C)ccc(C(=O)[*:1])c3nc-2c(C(=O)[*:2])c(N)c1=O; NMeV = CN[C@H](C(=O)O)C(C)C; Sar = CNCC(=O)O
# How the values were obtained:
# HaCaT cells [1] = assay: Migration assay (scratch assay, model for wound healing); assay type: cell-based, human
# Experimental: Using a human keratinocyte cell line (HaCaT) in a Scratch-Assay as a model for wound healing, different model-predicted points of interference were tested. First it was confirmed that HGF-induced migration predominantly depends on a transcriptional response.
# Immortalized human keratinocytes (HaCaT cells) were cultured in monoculture with DMEM (10% FCS, 100 U/ml penicillin, 100 µg/ml streptomycin). Subsequently, the cell monolayer was damaged with a 'scratch' using a pipette tip and cells were treated with 5 µg/ml mitomycin c (Sigma-Aldrich) for three hours before stimulation. Cells were stimulated at indicated time points and periods with cytokines and/or inhibitors: 10 ng/ml HGF, (R&D Systems), 1 ng/ml EGF (R&D Systems), 150 nM Tyrphostin AG1473 (Biomol) (EGF-R inhibitor) or 1 µM GW 2974 (Sigma) (EGF-R inhibitor), […] Meloxicam (Biomol) (PTGS-2 inhibitor), 0.5 µM H-89 (Calbiochem) (PKA inhibitor) or 10 µM Myristoylated PKI (14-22) amide, cell-permeable PKA inhibitor (Biomol), 200 µM 8-(4-Chlorophenylthio)adenosine 3',5'-cyclic monophosphate sodium salt (Sigma) (PKA activator) and incubated for further 30 hours. Relative migratory activity was determined by measuring migration distance during culture using standard protocols.
# HaCaT cells [2] = assay: MTT-viability assay; assay type: cell-based, human; settings: under Actinomycin D treatment; data not shown
structure (smiles),measurement,setting,value
"Nc1ncnc2c1nc(Sc1ccc(Cl)cc1)n2[C@@H]1O[C@@H]2COP(=O)([O-])O[C@H]2[C@H]1O.[Na+] [8-(4-Chlorophenylthio)adenosine 3',5'-cyclic monophosphate sodium salt]",HGF-induced HaCaT migration,"HaCaT cells [1]; Fig. 6C, 200 µM added at different time points with respect to HGF pulse stimulation (10 ng/ml for 1.5h)",strongly decreases
"Cc1c2oc3c(C)ccc(C(=O)N[C@@H]4C(=O)N[C@H](C(C)C)C(=O)N5CCC[C@H]5C(=O)N(C)CC(=O)N(C)[C@@H](C(C)C)C(=O)O[C@@H]4C)c3nc-2c(C(=O)N[C@@H]2C(=O)N[C@H](C(C)C)C(=O)N3CCC[C@H]3C(=O)N(C)CC(=O)N(C)[C@@H](C(C)C)C(=O)O[C@@H]2C)c(N)c1=O [Actimocyin D, Actinomycin D] (I: T[dV]P[Sar][NMeV] / II: T[dV]P[Sar][NMeV]; ester I:1-I:C, II:1-II:C; linker I:N-II:N via Actinocin(9to1))",cell viability,HaCaT cells [2],still viable
same,migratory response to HGF,"HaCaT cells [1]; Fig. 2B, prolonged incubation (30 h) with 10 ng/ml recombinant human HGF plus Actinomycin D 5 µg/ml",abolished any migratory response to HGF
CN(C)c1cc2c(Nc3ccc4c(cnn4Cc4ccccc4)c3)ncnc2cn1 [GW2974],HGF-induced migration,"HaCaT cells [1]; Fig. 3G, 1 µM GW 2974 simultaneous to 10 ng/ml HGF, 30 h",abolish HGF-induced migration
O=S(=O)(NCCNC/C=C/c1ccc(Br)cc1)c1cccc2cnccc12 [H-89],HGF-induced migration,"HaCaT cells [1]; Fig. 6C, 0.5 µM at the time of HGF stimulation",slightly increases migration
same,development of a migratory response,"HaCaT cells [1]; Fig. 6C, 0.5 µM directly after HGF pulse stimulation (1.5 h)",does not alter development of a migratory response
same,further migration,"HaCaT cells [1]; Fig. 6C, PKA inhibition after 22 h, when cells already developed a full migratory response",delays further migration
